Experimental data: ChEMBL document CHEMBL4312021, “Discovery of [1,2,4]-triazolo [1,5-a]pyrimidine-7(4H)-one derivatives as positive modulators of GABAA1 receptor with potent anticonvulsant activity and low toxicity” (Eur J Med Chem, 2020)
Calls of active or inactive are those of the source. No cut-off for these calls is given here.

Key:
[1] = molecular target: T1, GABA-A receptor; alpha-1/beta-2/gamma-2 (Homo sapiens) (UniProt P14867+P47870+P18507); assay: Activation of recombinant human GABA receptor alpha1beta2gamma2 expressed in CHO cells and measured for 120 secs by FMP dye based FLIPR assay; format: cell-based
[2] = molecular target: T1, GABA-A receptor; alpha-1/beta-2/gamma-2 (Homo sapiens); assay: (§1) Activation of recombinant human GABA receptor alpha1beta2gamma2 expressed in CHO cells in presence of GABA and measured for 120 secs by FMP dye based FLIPR assay; format: cell-based
[3] = molecular target: T2, GABA-A receptor; alpha-1/beta-2/gamma-2 (Homo sapiens, UniProt P14867+P18507+P47870); assay: as §1; format: cell-based
T2 sequence (P14867 whole entry): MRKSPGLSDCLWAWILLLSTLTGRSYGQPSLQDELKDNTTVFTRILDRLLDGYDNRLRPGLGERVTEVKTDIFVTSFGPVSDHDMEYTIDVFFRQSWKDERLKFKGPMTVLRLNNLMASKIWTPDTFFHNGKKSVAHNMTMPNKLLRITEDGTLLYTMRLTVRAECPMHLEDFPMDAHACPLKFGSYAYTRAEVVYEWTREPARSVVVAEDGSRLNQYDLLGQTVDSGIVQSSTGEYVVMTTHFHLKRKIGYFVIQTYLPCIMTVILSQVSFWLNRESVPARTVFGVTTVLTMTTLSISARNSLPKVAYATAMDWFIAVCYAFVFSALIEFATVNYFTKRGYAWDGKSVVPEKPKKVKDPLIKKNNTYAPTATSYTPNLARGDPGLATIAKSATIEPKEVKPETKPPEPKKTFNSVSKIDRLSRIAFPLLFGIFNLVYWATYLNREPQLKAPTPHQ
T2 sequence (P47870 whole entry): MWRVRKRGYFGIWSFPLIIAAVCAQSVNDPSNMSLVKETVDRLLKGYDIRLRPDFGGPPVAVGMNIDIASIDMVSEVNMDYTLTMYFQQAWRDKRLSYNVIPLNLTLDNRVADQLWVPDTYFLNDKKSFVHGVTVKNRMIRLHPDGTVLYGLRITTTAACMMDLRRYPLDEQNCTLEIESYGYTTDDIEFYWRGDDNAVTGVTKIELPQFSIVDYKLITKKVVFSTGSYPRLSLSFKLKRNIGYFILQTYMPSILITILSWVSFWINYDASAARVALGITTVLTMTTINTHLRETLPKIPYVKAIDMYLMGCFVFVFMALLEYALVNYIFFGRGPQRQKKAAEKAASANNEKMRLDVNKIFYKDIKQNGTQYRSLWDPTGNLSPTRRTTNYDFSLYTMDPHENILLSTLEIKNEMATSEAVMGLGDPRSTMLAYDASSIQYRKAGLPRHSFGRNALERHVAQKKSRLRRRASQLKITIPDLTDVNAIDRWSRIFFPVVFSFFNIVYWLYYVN
T2 sequence (P18507 whole entry): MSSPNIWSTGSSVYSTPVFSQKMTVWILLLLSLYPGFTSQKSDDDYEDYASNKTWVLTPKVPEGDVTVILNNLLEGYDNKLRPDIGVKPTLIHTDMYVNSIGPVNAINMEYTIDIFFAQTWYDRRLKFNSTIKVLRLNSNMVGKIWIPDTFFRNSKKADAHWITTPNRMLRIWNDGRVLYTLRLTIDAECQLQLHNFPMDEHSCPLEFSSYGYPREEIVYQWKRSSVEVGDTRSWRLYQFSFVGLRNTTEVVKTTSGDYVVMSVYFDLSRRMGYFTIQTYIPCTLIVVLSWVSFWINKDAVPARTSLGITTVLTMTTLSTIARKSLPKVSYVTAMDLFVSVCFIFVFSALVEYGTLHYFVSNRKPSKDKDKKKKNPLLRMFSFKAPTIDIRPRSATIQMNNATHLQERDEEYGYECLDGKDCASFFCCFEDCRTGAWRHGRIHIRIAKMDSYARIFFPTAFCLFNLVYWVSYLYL

Mus musculus [4] = species on record: Mus musculus; assay: Inhibition of sodium channel in C57BL/6 mouse primary cortical neurons at 10 uM by manual patch clamp electrophysiology method
Mus musculus [5] = species on record: Mus musculus; assay: Inhibition of sodium channel in C57BL/6 mouse Primary cortical neurons at 100 uM by manual patch clamp electrophysiology method
[6] = Protective index, ratio of TD50 for neurotoxicity in ip dosed Kunming mouse to ED50 for anticonvulsant activity in ip dosed Kunming mouse; format: toxicity, organism-based; conditions: in vivo, read-out: Ratio TD50/ED50
Mus musculus [7] = assay: Anticonvulsant activity in Kunming mouse assessed as reduction in ScPTZ-induced seizure at 30 mg/kg, ip administered before 30 mins of ScPTZ stimulation; format: functional, organism-based
Mus musculus [8] = assay: Anticonvulsant activity in Kunming mouse assessed as reduction in ScPTZ-induced seizure at 300 mg/kg, ip administered before 30 mins of ScPTZ stimulation; format: functional, organism-based
Cortical neurone = assay: Antiepileptic actvity in C57BL/6 mouse Primary cortical neuron assessed as reduction in 4-AP-induced excitability measured for 8 mins by Fluo-8/AM staining based FLIPR assay; format: functional, cell-based; conditions: C57BL/6, Cortical neurone
[9] = molecular target: T2, GABA-A receptor; alpha-1/beta-2/gamma-2; assay: Positive allosteric modulation of recombinant human GABA receptor alpha1beta2gamma2 expressed in CHO cells at 30 uM in presence of GABA and measured for 120 secs by FMP dye based FLIPR assay (reference value: 0.25 +/- 0.03 uM); format: cell-based
[10] = Neurotoxicity in ip dosed Kunming mouse assessed as reduction in equilibrium measured after 30 mins by rotarod test; format: toxicity, organism-based; conditions: in vivo
Mus musculus [11] = assay: Anticonvulsant activity in Kunming mouse assessed as reduction in ScPTZ-induced seizure at 100 mg/kg, ip administered before 30 mins of ScPTZ stimulation; format: functional, organism-based
Mus musculus [12] = assay: Anticonvulsant activity in Kunming mouse assessed as reduction in MES-induced seizure at 30 to 300 mg/kg, ip measured after 30 mins; format: functional, organism-based
Mus musculus [13] = assay: Anticonvulsant activity in ip dosed Kunming mouse assessed as reduction in ScPTZ-induced seizure administered before 30 mins of ScPTZ stimulation; format: functional; conditions: 0.5 h

Cc1ccc(-c2nc3[nH]c(Cc4ccccc4)cc(=O)n3n2)cc1
Activity [1]: inactive
Activity [2]: Dose-dependent effect
EC50 [3]: 12000 nM
inhibition (Mus musculus [4]): inactive
inhibition (Mus musculus [5]): Active
selectivity ratio [6]: 9.09
Activity (Mus musculus [7]): Active
Activity (Mus musculus [8]): Active
IC50 (Cortical neurone): 334 nM
EC50 [9]: 240 nM
TD50 at 0.5 h [10]: 372 mg/kg
Activity (Mus musculus [11]): Active
Activity (Mus musculus [12]): inactive
ED50 (Mus musculus [13]): 41 mg/kg
